Results on 23 molecules are retold here after ChEMBL document CHEMBL1629478, “Novel alkyl- and arylcarbamate derivatives with N-benzylpiperidine and N-benzylpiperazine moieties as cholinesterases inhibitors” (Eur J Med Chem, 2010).

Each structure is given as a SMILES string. The source made the active and inactive calls. No cut-off for these calls is given here.

For assay [1], the target named is Cholinesterase (Equus caballus) (UniProt P81908). Nature of the assay: Inhibition of horse serum BChE at 100 uM preincubated for 5 mins by Ellman's method.
For the next assay, the target named is Cholinesterase (Equus caballus, UniProt P81908).
Assay [2] deals with Acetylcholinesterase (Electrophorus electricus) (UniProt O42275). The assay is described as follows: Inhibition of electric eel AChE at 100 uM preincubated for 5 mins by Ellman's method.
The target is the same in assay [3]. The assay is described as follows: Non-competitive inhibition of electric eel AChE by Lineweaver-Burk plot analysis.
Assay [4] addresses Cholinesterase (Equus caballus) (UniProt P81908). Nature of the assay: Mixed-type inhibition of horse serum BChE by Lineweaver-Burk plot analysis.

Chain of Acetylcholinesterase (Electrophorus electricus) (O42275 24-633 limits assumed): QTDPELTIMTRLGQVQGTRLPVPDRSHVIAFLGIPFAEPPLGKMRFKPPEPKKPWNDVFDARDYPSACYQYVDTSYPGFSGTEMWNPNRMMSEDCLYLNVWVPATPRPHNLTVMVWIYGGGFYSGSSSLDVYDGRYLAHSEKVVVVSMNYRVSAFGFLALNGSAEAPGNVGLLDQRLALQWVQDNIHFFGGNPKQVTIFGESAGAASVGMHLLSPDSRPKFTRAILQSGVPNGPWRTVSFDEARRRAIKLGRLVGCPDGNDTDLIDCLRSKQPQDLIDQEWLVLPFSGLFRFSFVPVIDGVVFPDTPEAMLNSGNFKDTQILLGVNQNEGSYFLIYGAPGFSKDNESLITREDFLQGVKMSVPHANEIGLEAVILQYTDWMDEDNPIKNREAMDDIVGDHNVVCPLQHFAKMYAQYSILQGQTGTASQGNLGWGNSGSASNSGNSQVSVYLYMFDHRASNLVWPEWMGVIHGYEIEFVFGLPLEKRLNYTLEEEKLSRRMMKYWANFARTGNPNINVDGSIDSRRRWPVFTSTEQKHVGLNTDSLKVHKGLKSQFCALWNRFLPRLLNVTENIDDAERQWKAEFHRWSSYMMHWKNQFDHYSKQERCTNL
Chain of Cholinesterase (Equus caballus) (P81908 whole entry): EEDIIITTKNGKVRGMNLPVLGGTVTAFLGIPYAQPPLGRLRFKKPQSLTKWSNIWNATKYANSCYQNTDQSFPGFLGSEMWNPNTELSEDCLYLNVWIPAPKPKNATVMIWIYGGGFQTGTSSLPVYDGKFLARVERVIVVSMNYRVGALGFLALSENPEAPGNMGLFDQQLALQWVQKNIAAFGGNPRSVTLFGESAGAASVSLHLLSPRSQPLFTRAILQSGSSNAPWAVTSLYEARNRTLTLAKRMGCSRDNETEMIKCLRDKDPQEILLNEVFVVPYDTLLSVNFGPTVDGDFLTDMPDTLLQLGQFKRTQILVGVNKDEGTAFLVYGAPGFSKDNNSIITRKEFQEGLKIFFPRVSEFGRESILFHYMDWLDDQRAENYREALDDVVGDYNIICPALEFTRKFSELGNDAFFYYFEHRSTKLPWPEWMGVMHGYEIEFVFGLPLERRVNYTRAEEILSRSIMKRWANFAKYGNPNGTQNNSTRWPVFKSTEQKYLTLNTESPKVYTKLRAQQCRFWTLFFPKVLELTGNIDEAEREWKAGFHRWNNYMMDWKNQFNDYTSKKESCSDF
Chain of Cholinesterase (P81908 whole entry): as above

Consider `CC(C)NC(=O)Oc1cccc(CC(=O)NC2CCN(Cc3ccccc3)CC2)c1`, for which the values for the inhibition in assay [1] and in assay [2] were 72.2% and 34.9%, respectively. Half-maximal inhibition on Cholinesterase (IC50) required 29.5 µM.

In assay [1], `CN(C)C(=O)Oc1cccc(CC(=O)N2CCN(Cc3ccccc3)CC2)c1` registered an inhibition of 79%. Also, inhibition at Cholinesterase was half-maximal at 23.4 µM (IC50). Further, the inhibition result in assay [2] was “inactive”.

For the molecule `CCCNC(=O)Oc1ccc(CC(=O)N2CCN(Cc3ccccc3)CC2)cc1`, in assay [1], the inhibition was determined as 88.3%. The molecule also had an IC50 at Cholinesterase of 32.4 µM. The inhibition result in assay [2] is “inactive”.

Consider `CN(C)C(=O)Oc1ccc(CC(=O)NC2CCN(Cc3ccccc3)CC2)cc1`, for which the inhibition in assay [1] came to 89.8%; in assay [2], 46.2%. This molecule showed an IC50 against Cholinesterase of 8.91 µM.

In the case of `CCNC(=O)Oc1ccc(CC(=O)NC2CCN(Cc3ccccc3)CC2)cc1`, the inhibition in assay [1] was 90.4%; in assay [2], 23.4%. Besides, the IC50 at Cholinesterase was 10.7 µM.

For `CCNC(=O)Oc1cccc(CC(=O)NC2CCN(Cc3ccccc3)CC2)c1`, the results for the inhibition in assay [1] and in assay [2] were 68.6% and 28.5%, respectively. At Cholinesterase, this molecule showed an IC50 of 37.2 µM.

For `CCCCNC(=O)Oc1cccc(CC(=O)NC2CCN(Cc3ccccc3)CC2)c1`, the figures for the inhibition in assay [1] and in assay [2] were 92% and 39.9%, respectively. The IC50 against Cholinesterase was 5.75 µM.

As to `O=C(Cc1ccc(O)cc1)N1CCN(Cc2ccccc2)CC1`, the inhibition in assay [1] amounted to 45.3%. The inhibition result in assay [2] is “inactive”.

With `Cc1ccccc1NC(=O)Oc1ccc(CC(=O)NC2CCN(Cc3ccccc3)CC2)cc1`, the inhibition in assay [1] amounted to 46.9%; in assay [2] it was 24.7%.

`CCNC(=O)Oc1ccc(CC(=O)N2CCN(Cc3ccccc3)CC2)cc1` displayed an inhibition in assay [1] of 83.4%. At Cholinesterase, this molecule registered an IC50 of 43.7 µM. The inhibition entry in assay [2] is “inactive”.

In turn, `CCCCNC(=O)Oc1ccc(CC(=O)N2CCN(Cc3ccccc3)CC2)cc1` registered an inhibition in assay [1] of 83.1%. Besides, the midpoint of inhibition against Cholinesterase, the IC50, lay at 16.6 µM. For the same molecule, the inhibition entry in assay [2] was “inactive”.

For `CC(C)NC(=O)Oc1cccc(CC(=O)N2CCN(Cc3ccccc3)CC2)c1`, the inhibition in assay [1] worked out at 77.7%. Moreover, the IC50 on Cholinesterase was 35.5 µM. Moreover, the inhibition result in assay [2] is “inactive”.

For the molecule `O=C(Cc1cccc(O)c1)NC1CCN(Cc2ccccc2)CC1`, the inhibition was found to be 49.8% in assay [1] and 38.1% in assay [2].

`CCCCNC(=O)Oc1cccc(CC(=O)N2CCN(Cc3ccccc3)CC2)c1` registered an inhibition in assay [1] of 92.7%. On Cholinesterase, this molecule gave an IC50 of 10 µM. The inhibition result in assay [2] was “inactive”.

Turning to `CN(C)C(=O)Oc1ccc(CC(=O)N2CCN(Cc3ccccc3)CC2)cc1`, the inhibition in assay [1] stood at 32.5%. In addition, in assay [2], the inhibition entry was “inactive”.

Turning to `O=C(Cc1ccc(O)cc1)NC1CCN(Cc2ccccc2)CC1`, the inhibition in assay [1] was determined as 45.6%; in assay [2] it was 15.2%.

In the case of `CN(C)C(=O)Oc1cccc(CC(=O)NC2CCN(Cc3ccccc3)CC2)c1`, the inhibition in assay [1] came out at 82.1%; in assay [2] it was 50.5%. On Cholinesterase, the IC50 was 21.9 µM. Moreover, the inhibition result in assay [3] and in assay [4] was “Active” each time.

`CC(C)NC(=O)Oc1ccc(CC(=O)N2CCN(Cc3ccccc3)CC2)cc1`: the inhibition in assay [1] is 72.2%. On Cholinesterase, this molecule gave a half-inhibitory concentration (IC50) of 52.5 µM. Further, the inhibition result in assay [2] is “inactive”.

As to `CCCCNC(=O)Oc1ccc(CC(=O)NC2CCN(Cc3ccccc3)CC2)cc1`, the inhibition came out at 63.4% in assay [1] and 43.7% in assay [2]. Besides, on Cholinesterase, the IC50 is 11.7 µM.

Turning to `CC(C)NC(=O)Oc1ccc(CC(=O)NC2CCN(Cc3ccccc3)CC2)cc1`, the inhibition in assay [1] is 63.1%; in assay [2], 19.2%. The same molecule gave a concentration for half-maximal inhibition (IC50) on Cholinesterase of 18.2 µM.

For `O=C(Cc1cccc(O)c1)N1CCN(Cc2ccccc2)CC1`, the inhibition in assay [1] amounted to 31.5%. Also, the inhibition entry in assay [2] was “inactive”.

For the molecule `CCNC(=O)Oc1cccc(CC(=O)N2CCN(Cc3ccccc3)CC2)c1`, in assay [1], the inhibition came out at 62.5%. The molecule further showed an IC50 against Cholinesterase of 55 µM. Also, the inhibition result in assay [2] was “inactive”.

`CCCNC(=O)Oc1ccc(CC(=O)NC2CCN(Cc3ccccc3)CC2)cc1`: the inhibition in assay [1] was 95.1%; in assay [2], 33.8%. Besides, the IC50 on Cholinesterase is 9.33 µM.
